How the values were obtained:
[1] = literature value, standardised test; cited from earlier work
[2] = Critical wavelength (λcrit), approximate in-house measurement; assay type: physicochemical; conditions: values only approximate
Source text: As the precise test for critical wavelength was unable to be replicated exactly by the inventors due to the need for specialist equipment and a specific calibration of the spectrophotometer, these values are only approximate to a degree. […] This represents a highly useful result and so, compounds based around this benzoyl substitution pattern shown, are especially preferred.

- critical wavelength [2]: 378 nm
Compound: COc1ccc(C(=O)CC(=O)c2ccc(C(C)(C)C)cc2)cc1 [Avobenzone, reference compound]
- critical wavelength, reported [1]: 380 nm
